Measured values taken from patent publication US20100004238A1, “FUSED HETEROCYCLIC COMPOUND” (TAKEDA PHARMACEUTICAL COMPANY LIMITED, priority 2006, published 2010).

Assays:
[1] = target: T1, EGFR intracellular domain (EGFR kinase) (Homo sapiens, UniProt P00533); assay: Determination of EGFR kinase inhibitory activity; assay type: biochemical; conditions: compound at 1.0 μM, poly-Glu:Tyr (4:1) substrate, [γ-32P]ATP; for inhibition at 1 µM: read-out: inhibitory rate (%) at 1.0 μM
T1 construct: made in house; host or cells: SF-21 insect cells infected with recombinant baculovirus BAC-EGFR
Method: Human EGFR gene was cloned by RT-PCR using total RNA prepared from A431 cells as a template. The primer used for RT-PCR was prepared in consideration of the information of nucleotide sequence (Genbank Accession No. X00588) of EGFR gene by adding a nucleotide sequence encoding DYKDDDD peptide and a restriction enzyme recognition sequence to a nucleotide sequence (corresponding to 2191-3819 of Genbank Accession No. X00588 as a base, 669-1210 amino acids of Genbank Accession No. NP_005219 as a protein) encoding the EGFR intracellular domain region such that the protein contains an N-terminal DYKDDDD peptide tag. The primer nucleotide sequence is shown below.
(§1) SF-21 cells were sown at 1×10^6 cells/mL in Sf-900II SFM medium (1 L, Invitrogen) containing 10% fetal bovine serum (trace), 50 mg/L gentamicin (Invitrogen) and 0.1% Pluronic F-68 (Invitrogen), and shaking culture was performed using a 2 L volume Erlenmeyer flask at 27° C., 100 rpm. After culturing for 24 hrs, recombinant baculovirus BAC-EGFR (13.4 mL) was added, and the mixture was further cultured for 3 days. The culture medium was centrifuged at 2,000 rpm for 5 min to give virus-infected cells. The infected cells were washed with a phosphate buffered saline (Invitrogen), centrifuged under the same conditions, and the cells were preserved at −80° C. The cryopreserved cells were thawed in ice, suspended in buffer A (50 mM Tris buffer (30 mL, pH 7.4) containing 20% glycerol, 0.15 M NaCl) supplemented with Complete Protease Inhibitor (Boehringer), and ruptured 3 times with a Polytron homogenizer (Kinematica) at 20,000 rpm for 30 sec. The ruptured solution was clarified by centrifugation at 40,000 rpm for 30 min, and filtered with a 0.45 μm filter. The filtrate was passed through a column packed with Anti-FLAG M2 Affinity Gel (4 mL, Sigma-Aldrich) at a flow rate of about 0.5 mL/min. The column was washed with buffer A, and eluted with buffer A containing 100 μg/mL of FLAG peptide. The eluent was concentrated with Vivaspin 20 (Vivascience) having a molecular weight cut off of 30K. The concentrate was purified by gel filtration using Hi Load 16/60 Superdex 200 pg (GE Healthcare Bioscience) equilibrated with buffer A. The fractions containing EGFR intracellular domain were collected and cryopreserved at −80° C.
(§2) EGFR kinase reaction was performed using a 96 well plate. As a buffer for kinase reaction, a buffer having a composition of 50 mM Tris-HCl (pH 7.5), 5 mM MnCl2, 2 mM dithiothreitol, 0.01% Tween-20 was used. The compound of the present invention was dissolved in dimethyl sulfoxide (DMSO), and diluted with the kinase reaction buffer so that DMSO concentration would be 0.1% during kinase reaction. This compound solution (10 μL) was mixed with a kinase reaction buffer (20 μL) containing EGFR intracellular domain (0.625 μg/mL) obtained in Experimental Example 2B and polypeptide substrate poly-Glu:Tyr (4:1) (Sigma Ltd., 12.5 μg/mL), and the mixture was stood at room temperature for 5 min. Then, a kinase reaction buffer (20 μL) containing 125 μM ATP and 45 μCi/mL [γ-^32P]ATP was added, and the kinase reaction was initiated with 50 μL of the final reaction mixture. A kinase reaction was performed at room temperature for 10 min, and the kinase reaction was quenched by addition of 20% TCA solution (50 μL). The mixture after completion of the reaction was stood at room temperature for 30 min, and acid insoluble fractions in the mixture after completion of the reaction were collected in a 96 well GF/C filter plate (PerkinElmer) using a cell harvester (PerkinElmer). Thereafter, the filter containing the acid insoluble fractions was washed with 3% phosphoric acid solution. After washing, the filter plate was dried at 45° C. for 60 min, and 25 μL of MicroScinti 0 (PerkinElmer) was added. The radioactivity was measured using TopCount (PerkinElmer).
EGFR kinase inhibitory rate (%) of the test compound was calculated by the following formula: […]

[2] = tested on: human breast cancer cell BT-474; assay: Inhibitory action on breast cancer cell BT-474 proliferation in vitro; assay type: cell-based; conditions: 120 h, BT-474 cells, cultured for 5 days with compound, SRB protein content
Method: A suspension of human breast cancer cell BT-474 (100 μl (6,000 cells)) were plated in a 96-well microplate and cultured in an incubator (37° C., 5% carbon dioxide). On the following day, 100 μl of a solution of each test compound previously diluted serially in 2-fold, was added, and the cells were cultured for 5 days. After the culture medium containing the test compound was removed, the cells were washed and fixed with 50% trichloroacetic acid, after which a 0.4% (w/v) SRB dye solution (dissolved in 1% acetic acid) was added to stain as well as fix the cell protein (Skehan et al., Journal of the National Cancer Institute, Vol. 82, pp. 1107-1112, 1990). After washing with a 1% acetic acid solution, 100 μl of extract solution (10 mM, Tris buffer) was added to extract the dye and the absorbance was measured at a wavelength of 550 nm to quantify the amount of cells as protein content. Taking as 100% the protein content for the control group, which received no test compound solution, the ratio of the residual protein content for each treatment group was determined, and the compound concentration required to achieve 50% suppression of the residual cell content relative to the control (IC50 value) was calculated.

[3] = target: T2, HER2 intracellular domain (HER2 kinase) (Homo sapiens, UniProt P04626); assay: Determination of HER2 kinase inhibitory activity; assay type: biochemical; conditions: compound at 1.0 μM, poly-Glu:Tyr (4:1) substrate, [γ-32P]ATP, read-out: inhibitory rate (%) at 1.0 μM
T2 construct: made in house; host or cells: SF-21 insect cells infected with recombinant baculovirus BAC-HER2
Method: Human HER2 gene was cloned by RT-PCR using total RNA prepared from MCF7 cells as a template. The primer used for RT-PCR was prepared in consideration of the information of nucleotide sequence (Genbank Accession No. M11730) of HER2 gene by adding a nucleotide sequence encoding DYKDDDD peptide and a restriction enzyme recognition sequence to a nucleotide sequence (corresponding to 2176-3918 of Genbank Accession No. M11730 as a base, 676-1255 amino acids of Genbank Accession No. NP_004439 as a protein) encoding the HER2 intracellular domain region such that the protein contains an N-terminal DYKDDDD peptide tag. The primer nucleotide sequence is shown below.
as §1, with “hr,” for “hrs,”, “BAC-HER2” for “BAC-EGFR”, “HER2” for “EGFR”
as §2, with “HER2 kinase reaction” for “EGFR kinase reaction”, “buffer […] containing HER2” for “buffer (20 μL) containing EGFR”, “mL) containing HER2 intracellular domain” for “μL) containing EGFR intracellular domain”, “Experimental Example 1B and polypeptide” for “Experimental Example 2B and polypeptide”, “TopCount (PerkinElmer). HER2 kinase inhibitory rate (%) of the test compound was calculated by the following formula: […]” for “TopCount (PerkinElmer).”

T1 sequence (P00533 669-1210): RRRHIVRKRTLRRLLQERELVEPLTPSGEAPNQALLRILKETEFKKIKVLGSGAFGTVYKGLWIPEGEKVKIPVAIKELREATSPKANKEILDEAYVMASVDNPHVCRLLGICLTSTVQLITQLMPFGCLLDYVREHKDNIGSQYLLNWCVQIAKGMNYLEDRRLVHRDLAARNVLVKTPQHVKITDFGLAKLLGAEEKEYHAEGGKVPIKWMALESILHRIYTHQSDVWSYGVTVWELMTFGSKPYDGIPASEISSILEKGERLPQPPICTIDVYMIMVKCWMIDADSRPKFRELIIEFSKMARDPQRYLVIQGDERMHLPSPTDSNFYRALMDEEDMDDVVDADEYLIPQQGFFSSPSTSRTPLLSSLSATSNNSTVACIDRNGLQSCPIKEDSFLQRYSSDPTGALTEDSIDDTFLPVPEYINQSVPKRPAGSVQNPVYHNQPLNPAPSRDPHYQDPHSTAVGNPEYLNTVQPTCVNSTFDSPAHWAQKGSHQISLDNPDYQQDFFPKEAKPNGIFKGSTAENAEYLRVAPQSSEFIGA
T2 sequence (P04626 676-1255): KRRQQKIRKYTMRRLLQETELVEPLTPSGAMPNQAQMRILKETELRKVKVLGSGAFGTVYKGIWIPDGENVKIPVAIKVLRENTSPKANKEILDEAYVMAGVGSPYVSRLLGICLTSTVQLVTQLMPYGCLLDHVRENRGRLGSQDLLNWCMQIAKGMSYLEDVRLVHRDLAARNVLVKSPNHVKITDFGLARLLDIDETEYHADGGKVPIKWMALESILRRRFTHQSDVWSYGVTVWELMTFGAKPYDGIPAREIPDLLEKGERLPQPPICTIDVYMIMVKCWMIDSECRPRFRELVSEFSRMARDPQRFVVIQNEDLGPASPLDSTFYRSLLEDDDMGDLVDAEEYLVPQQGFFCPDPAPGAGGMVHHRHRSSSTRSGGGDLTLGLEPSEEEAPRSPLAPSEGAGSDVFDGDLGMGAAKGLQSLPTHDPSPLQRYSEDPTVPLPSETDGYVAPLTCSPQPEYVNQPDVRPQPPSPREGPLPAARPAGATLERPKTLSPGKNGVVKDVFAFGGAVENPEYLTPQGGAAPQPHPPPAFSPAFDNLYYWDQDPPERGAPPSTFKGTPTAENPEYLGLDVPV

SMILES | inhibition at 1 µM [1] | IC50 [2] | inhibitory rate (%) at 1.0 μM ([1]; methanesulfonate, 1 µM) | inhibition at 1 µM [3]
CC(C)(CO)C(=O)NCCn1ccc2ncnc(Nc3ccc(Oc4ccc5ccsc5c4)c(Cl)c3)c21 [Example 53, N-[2-(4-{[4-(1-benzothiophen-6-yloxy)-3-chlorophenyl]amino}-5H-pyrrolo[3,2-d]pyrimidin-5-yl)ethyl]-3-hydroxy-2,2-dimethylpropanamide] | 98% |  |  | 
Cn1ccc2ncnc(Nc3ccc(Oc4cccc5[nH]ccc45)c(Cl)c3)c21 [Example 22, N-[3-chloro-4-(1H-indol-4-yloxy)phenyl]-5-methyl-5H-pyrrolo[3,2-d]pyrimidin-4-amine] | 98% | < 100 nM |  | 
CC(=O)NCCn1ccc2ncnc(Nc3ccc(Oc4cccc5sccc45)c(Cl)c3)c21 [Example 119, N-[2-(4-{[4-(1-benzothiophen-4-yloxy)-3-chlorophenyl]amino}-5H-pyrrolo[3,2-d]pyrimidin-5-yl)ethyl]acetamide methanesulfonate] |  |  | 99% | 
CN1C(=O)Cc2c(Oc3ccc(Nc4ncnc5ccn(CCO)c45)cc3Cl)cccc21 [Example 8, 4-(2-chloro-4-{[5-(2-hydroxyethyl)-5H-pyrrolo[3,2-d]pyrimidin-4-yl]amino}phenoxy)-1-methyl-1,3-dihydro-2H-indol-2-one] | 100% | < 100 nM |  | 
OCCOCCn1ccc2ncnc(Nc3ccc(Oc4cccc5[nH]ccc45)c(Cl)c3)c21 [Example 16, 2-[2-(4-{[3-chloro-4-(1H-indol-4-yloxy)phenyl]amino}-5H-pyrrolo[3,2-d]pyrimidin-5-yl)ethoxy]ethanol] | 99% |  |  | 100%
CS(=O)(=O)CC(=O)NCCn1ccc2ncnc(Nc3ccc(Oc4cccc5c4CC(=O)N5)c(Cl)c3)c21 [Example 6, N-{2-[4-({3-chloro-4-[(2-oxo-2,3-dihydro-1H-indol-4-yl)oxy]phenyl}amino)-5H-pyrrolo[3,2-d]pyrimidin-5-yl]ethyl}-2-(methylsulfonyl)acetamide] | 100% | < 100 nM |  | 
CC(=O)NCCn1ccc2ncnc(Nc3ccc(Oc4cccc5sccc45)c(Cl)c3)c21 [Example 99, N-[2-(4-{[4-(1-benzothiophen-4-yloxy)-3-chlorophenyl]amino}-5H-pyrrolo[3,2-d]pyrimidin-5-yl)ethyl]acetamide] | 98% |  |  | 
CS(=O)(=O)CC(=O)NCCn1ccc2ncnc(Nc3ccc(Oc4ccc5ccsc5c4)c(Cl)c3)c21 [Example 60, N-[2-(4-{[4-(1-benzothiophen-6-yloxy)-3-chlorophenyl]amino}-5H-pyrrolo[3,2-d]pyrimidin-5-yl)ethyl]-2-(methylsulfonyl)acetamide] | 99% |  |  | 
